# Columns and labels:
# FXR = FXR target gene expression in terminal ileum and liver by RT-qPCR (Example 5); assay type: in vivo, rabbit
# Experimental: Total RNA was isolated from terminal ileum and (non)embolized liver lobes using Tri Reagent (Ambion). Following treatment with DNAseI (Promega, Leiden, the Netherlands), 750 ng total RNA was converted to cDNA using the iSCRIPT cDNA synthesis kit (BioRad, Veenendaal, the Netherlands). Quantitative RT-PCR (real-time polymerase chain reaction) was performed on an IQ5 Cycler using SYBR Green chemistry (SYBR Green MasterMix, BioRad) and cDNA equivalent to 7.5 ng total RNA as template. Expression levels were calculated using LinReg software (Ramakers C, et al. Neurosci Lett 2003; 339(1):62-6) and normalized to the geometric mean of Rplp0, Hprt and Gapdh. Predicted product size was checked by agarose gel electrophoresis. PCR analysis was performed using tissue obtained at day 3 and 7 for n=6 per treatment group.
# mice = details: 2 years, 25 mg/kg; cited from earlier work
# [1] = test system: New Zealand White rabbits; test: Portal vein embolization (PVE) in rabbits, 6-ECDCA vs vehicle (Example 4); assay type: in vivo, rabbit
# Excerpt: Female New Zealand White rabbits with a mean weight of 3.0±0.5 kg were acclimatized for 1 week under standardized laboratory conditions in a temperature-controlled room. The animals were individually housed, had free access to standard laboratory food and water, and were subjected to a 12-h light/dark cycle per day. The rabbits were divided into two groups receiving 6-ECDCA and two control groups receiving vehicle. Specifically, the PVE study rabbits were divided into following groups: • Group 1: Normal diet (6-ECDCA 10 mg/kg/day, oral gavage) (N=6), animals sacrificed at day 7, post PVE. • Group 2: Normal diet (Vehicle) (N=6), animals sacrificed at day 7 post PVE. • Group 3: Normal diet (6-ECDCA 10 mg/kg/day, oral gavage) (N=6), animals sacrificed at day 3, post PVE. • Group 4: Normal diet (Vehicle) (N=6), animals sacrificed at day 3, post PVE.
# The rabbit liver consists of four liver lobes, three of which are positioned cranially, with the fourth located caudally. In the rabbit PVE model the cranial liver lobes, which account for approximately 80% of the total liver volume, were embolized. The rabbit was placed in a supine position after subcutaneous injection of 0.03 mg/kg buprenorphine and 0.02 mg/kg enrofloxacin. Rabbits were given enrofloxacin 0.02 mg/kg subcutaneously once a day for 3d postoperatively. Animals were anesthetized by intramuscular injection of 25.0 mg/kg ketamine and 0.2 mg/kg dexmedetomidine. Isoflurane 1%-2% with O2/air (1:0.7 L/min) was used to maintain anesthesia. Heart rate and arterial oxygen saturation were measured by pulse oximetry continuously throughout the procedure.
# To identify the individual portal branches, portography was performed. After passing the portal branch to the caudal liver lobe, a microcatheter was positioned into the main portal branch supplying the cranial liver lobes. Animals received an initial mixture of contrast (Visipaque) and 90-180 μm polyvinyl alcohol (PVA) particles, followed by injection of 300-500 μm PVA particles until cessation of flow and placement of three platinum coils (6 mm). Portography directly after PVE confirmed total occlusion of the cranial portal blood flow in the embolization groups. The hypertrophy and atrophy responses of the caudal and cranial lobes were measured using CT volumetry before embolization and on day 3 and 7 post-embolization.
# Multiphasic CT scans were performed using a 64-slice CT scan (Brilliance 64-channel; Philips, Eindhoven, The Netherlands). Rabbits were placed in supine position. After a blank series, a contrast enhanced scan was performed 15 s (arterial phase), 30 s (portal phase), and 45 s (venous phase) after contrast injection (4 mL Visipaque), followed by 3 mL NaCl. 3D-reconstructions of the liver were made using reconstructed 2 mm axial slices. The total liver and the cranial and caudal liver lobes were manually delineated and total liver volume (TLV) and the caudal liver volume (CLV) and cranial liver volume (CrLV) were calculated.
# The following measurements were carried out: (1) body weight, (2) computed tomography of the embolized and non-embolized lobes, (3) expression of cell cycle-related and bile salt homeostasis-related transcripts in the liver, (4) expression of ileal transcripts, and (5) serum total bile salt concentration.
# Serum bile salt concentration was determined at baseline, at 3 h, and at days 1, 3, and 7 post PVE. […]
compound,measurement,setting,value
"CC[C@H]1[C@@H](O)[C@@H]2[C@H](CC[C@]3(C)[C@@H]([C@H](C)CCC(=O)O)CC[C@@H]23)[C@@]2(C)CC[C@@H](O)C[C@@H]12 [Compound 1, 3α,7α-dihydroxy-6α-ethyl-5β-cholanic acid]",hepatic βKlotho transcript level,FXR; after three days,minor downregulation
same,hepatic Shp expression,FXR; caudal liver,without transcriptional induction
same,hepatic expression of Fgfr4,FXR; caudal liver,not affected
same,hepatic expression of Cyp7a1,"FXR; caudal liver, day +3",strongly suppressed
same,Ostβ expression in the liver,FXR; day +3,elevated
same,ileal Shp expression,FXR; day +3,induction
same,hepatic Fxr expression,FXR; day +7,reduced
same,FXR activation (aggregated gene expression analysis),"FXR; ileum and liver, listed as OCA",activation of both ileal and hepatic FXR
same,ileal expression of Fxr,FXR; terminal ileum,no effect
same,ileal expression of Ostβ,FXR; terminal ileum,not affected
same,malignant transformation,mice,does not lead to malignant transformation
same,increase in caudal liver volume (CLV),"[1]; CT, days 3 and 7 post embolization, FIG. 3",accelerates hypertrophy of the non-embolized lobe
same,concentration of serum bile salts vs control,"[1]; day 1 post PVE, FIG. 8",relatively lower
same,"body weight, difference vs vehicle","[1]; each day of the study, FIG. 2",not statistically significant
same,decrease in cranial liver lobe volume (CrLV),"[1]; embolized lobe, FIG. 5",does not affect atrophy of the embolized lobe
same,liver regeneration and liver mass,"[1]; rabbit PVE model, 10 mg/kg/day oral gavage",accelerates liver regeneration and increases liver mass

# From patent US10548906B2, “Methods of promoting hepatic regeneration” (Intercept Pharmaceuticals, Inc., priority 2015, dated 2020)
